“And” between values parts separate entries of the source, which are not always exact repeats. Equal values may be shown once. Ends that are not written are not given here.
Columns and labels:
HGC-27 cells = experiment: Colony formation; type: cell-based, human; details: colony formation: GLUP 2 μg/ml (1 μM) every 2 days for 2 weeks
Description: (A) Cell viability levels of HGC-27 cells treated with indicated concentrations (0, 5, 10, 20, 40 μg/ml) of GLUP for 48 h (three biological replicates, n = 3). Data shown as means ± SD represent the representative results from two independent experiments. (B) Colony formation of HGC-27 cells treated with GLUP every 2 days for a 2-week duration (three biological replicates, n = 3). GLUP, 2 μg/ml (1 μM). (C) Cell viability levels of the indicated cells (from 10 different lines) treated with GLUP. […] IC50 values for the treatments of these cells with GLUP (lower). […] The box plots showing the minima, maxima, center, bounds of box and whiskers and percentiles (upper quartile, median and lower quartile). Data shown as means ± SD represent the representative results from two independent experiments. Significance was tested using the unpaired t test, ***p < 0.001. (D) Cell viability of TEAD4-overexpressing AGS cells treated with GLUP for 48 h (three biological replicates, n = 3). Data shown as means ± SD represent the representative results from two independent experiments. (E) Cell viability levels of four lines of patient-derived cells (PDCs) treated with GLUP. […] The quantification graph represents the data collected from 14 cells (n = 14). […] Tumor areas were measured (right, n = 8/group) and indicated in red circles. […]

[1] = tested on: TEAD4^high or TEAD4^low GC patient-derived xenografts; experiment: Patient-derived xenograft (PDX) model; type: in vivo, mouse; design: Tumor area, TEAD4High PDX / Tumor area, TEAD4Low PDX: unit not given beside the values
Description: To establish PDX models, cell suspensions from GC patients were prepared as they were for PDOs. Subcutaneous implantation was performed on one flank of 5-week-old SCID mice weighing from 16 to 18 g and that were anesthetized using a isoflurane/oxygen mixture. Tumor growth was monitored by taking biweekly measurements of the implantation sites. Serial engraftments of each tumor were performed when the tumor reached a volume of ~500 mm^3. Subsequently, PDX tumors were enzymatically disassociated to form a single-cell suspension. To reduce murine cell populations, the cell suspension was then subjected to magnetic mouse cell depletion using a MACS mouse cell depletion kit (Miltenyi Biotech, Bergisch Gladbach, Germany). Following the cell depletion, all established PDX cell lines were maintained at steady rates of proliferation in RPMI 1640 medium. Additionally, a small piece of tumor tissue was obtained using a scalpel and fixed in 10% formalin-buffered saline for histological analysis.

[2] = 5 mg/kg GLUP daily for 15 d, individual mice, n = 8 (source data Fig 8I)

RRVCVHFHFSLSLR-NH2 (C-terminus assumed) [glup]
Viability and colony formation (HGC-27 cells): obvious reduction in both the viability and colony formation
Tumor area, TEAD4High PDX [1, 2]: 0 and 0.0472 and 0.0501 and 0.0406 and 0.03159 and 0.05051
Tumor area, TEAD4Low PDX [1, 2]: 0.09232 and 0.08466 and 0.08264 and 0.05322 and 0.1278 and 0.08635 and 0.1028 (2×)
Tumor response, TEAD4^high PDX ([1]; GLUP (i.v.) for 2 weeks): significantly regressed
Tumor response, TEAD4^low PDX ([1]; GLUP (i.v.) for 2 weeks): did not respond to the GLUP treatment
